Results reported in ChEMBL document CHEMBL3351459, “Present status of quinoxaline motifs: excellent pathfinders in therapeutic medicine” (Eur J Med Chem, 2014).
≈ marks a conversion by molar mass, not a printed value.

Key:
[1] = system: Mycobacterium tuberculosis; test: Antimycobacterial activity against rifampicin-resistant Mycobacterium tuberculosis; type: functional
[2] = system: Mycobacterium tuberculosis; test: Antimycobacterial activity against isoniazid-resistant Mycobacterium tuberculosis; type: functional

Q: For `CC(=O)c1c(C)[n+]([O-])c2ccc(Cl)cc2[n+]1[O-]`, which MIC [1] is on record?
A: ≤ 0.39 mg/L

Q: What about the MIC [2] of the same compound?
A: 1.56 mg/L (≈ 6.17 µM)
